Legend:
[1] = system: carrageenan-induced rat prostatitis model; assay: Carrageenan-induced rat prostatitis model: prostate weight assessment (prostate index); type: in vivo; settings: for prostate index (ratio of prostate gland wet weight/body weight): seven days after carrageenan, model group 2.15±0.30 mg/g
Excerpt: (§1) Adult male Sprague-Dawley rats (250-350 g body weight) were used for the experiments. All animals were acclimated for 1 week before any experimental procedures.
(§2) All the SD rats were randomly divided into different groups (n=8-10): control group, model group, and compounds-treated groups. For injection of carrageenan or saline, rats were anesthetized with 4% chloral hydrate and were fixed in a supine position. Then, the lower abdomen above the penis of rats was shaved and the skin in this area sterilized using 3 applications of 75% medical alcohol. A small midline incision was made in the sterile area, then the bladder and the prostate carefully exposed. With a 30-gauge needle, 50 ul sterile suspension of 3% carrageenan (Sigma, MO, USA) or saline (sham group) was injected into both right and left ventral lobes of the prostate gland. Different doses of RIPA-56 (12.5 mg/kg, 25 mg/kg, IP) or Finasteride (5 mg/kg, PO) were administrated to rats before (−17 min) and after (once every 12 h) carrageenan injection. While an equal amount of solvents were intraperitoneally and orally injected to control rats.
Seven days after carrageenan injection, rats were sacrificed and the prostates were harvested. Ventral and dorsolateral lobes of prostate glands were removed by cutting the ducts at the urethral connection and weighed immediately after removal. The prostate index (ratio of prostate gland wet weight/body weight) was calculated.

[2] = system: TNFα; assay: Carrageenan-induced rat prostatitis model: TNFα in prostate homogenate (ELISA); type: in vivo; settings: 25 mg/kg intraperitoneal B.I.D; per mg prostate homogenate protein; model 3.04±2.28, sham 0.52±0.26
Excerpt: as §1
as §2, with “Different doses of RIPA-56 (12.5 mg/kg, 25 mg/kg, IP) or Finasteride (5 mg/kg, PO) were administrated to rats before (−17 min) and after (once every 12 h) carrageenan injection. While an equal amount of solvents were intraperitoneally and orally injected to control rats.” left out
Part of rat prostate were weighed, mixed with cell lysis buffer (500 μl buffer per 100 mg tissue) and homogenized using FastPrep-24 homogenizer (MP Biomedicals). […] The supernatant was collected, and the total protein concentration was measured with the Bradford protein assay method. […] The level of cytokines was determined using rat TNFα, IL-1β and IL-6 ELISA kit (Biolegend or ProteinTech), and normalized to prostate protein concentration.

[3] = system: carrageenan-induced rat prostatitis model; assay: Carrageenan-induced rat prostatitis model: histological analysis of prostate (H & E); type: in vivo; settings: FIG. 1 C
Excerpt: as §1
as §2, with “While an equal amount of solvents were intraperitoneally and orally injected to control rats.” left out
For histological analysis, one part of the prostate was fixed in 10% neutral buffered formalin for 24 h, dehydrated in ethanol, cleared in xylene, and embedded in paraffin blocks. […] Each slide was evaluated randomly in 3 different areas by an independent investigator unaware of the animal grouping using a microscope.

[4] = system: aged mice; settings: seminal vesicles, seminiferous tubules, sperm production, reproductive capacity; cited from earlier work
[5] = system: rat EAP model; settings: cited from earlier work
[6] = system: carrageenan-induced male rat prostate disease model; assay: Carrageenan-induced male rat prostate disease model: representative RIP1, RIP3 and MLKL inhibitors; type: in vivo; settings: list after the methods of the example; protocols based on RIPA-56
Procedure: Experimental protocols for the compounds of Table 1 were based on those used for RIPA-56. Each inhibitor was intraperitoneally or orally administrated to rat before carrageenan treatment, at the dose of 20 mg/kg to 100 mg/kg.
Each inhibitor was intraperitoneally or orally administrated to rat before carrageenan treatment, at the dose of 20 mg/kg to 100 mg/kg.
as §2, with “Then, the lower abdomen above the penis of rats was shaved and the skin in this area sterilized using 3 applications of 75% medical alcohol.” left out, “Different doses of RIPA-56 (12.5 mg/kg, 25 mg/kg, IP) or Finasteride (5 mg/kg, PO) were administrated to rats before (−17 min) and after (once every 12 h) carrageenan injection.” left out

## CC(C)(C)NC(=O)[C@H]1CC[C@H]2[C@@H]3CC[C@H]4NC(=O)C=C[C@]4(C)[C@H]3CC[C@]12C [finasteride]
[1]; 5 mg/kg orally B.I.D
  decrease of the prostate index of carrageenan-treated rats: 23%

## CCC(C)(C)C(=O)N(O)Cc1ccccc1 [RIPA-56]
[1]; 12.5 mg/kg intraperitoneal B.I.D
  prostate index (ratio of prostate gland wet weight/body weight): 1.99 ± 0.41 mg/g
[1]; 25 mg/kg intraperitoneal B.I.D
  prostate index (ratio of prostate gland wet weight/body weight): 1.82 ± 0.22 mg/g
[1]; 12.5 and 25 mg/kg intraperitoneal B.I.D
  inhibition to the prostate enlargement and edema: dose-dependent inhibition
[2]
  TNFα level in the prostate homogenate: 1.02 ± 0.37 pg/mg
[3]; RIPA-56 treated rats vs disease-model group
  inflammatory response in the prostate (histopathology): less severe than the disease-model group
[3]; RIPA-56 treated rats
  inflammatory cells in the interstitial space (histopathology): Only few inflammatory cells
[4]
  protection of aged mice from reproductive system aging: can protect aged mice from seminal vesicles enlargement

## CCOc1ccccc1OCCN[C@H](C)Cc1ccc(OC)c(S(N)(=O)=O)c1 [tamsulosin]
[5]
  anti-inflammatory efficacy: partial anti-inflammatory efficacy

## Cn1c(=O)c2c(nc(S(C)(=O)=O)n2C)n(CC#Cc2cccc(O)c2)c1=O [TC13-172, 3-(3-(3-hydroxyphenyl)prop-2-yn-1-yl)-1,7-dimethyl-8-(methylsulfonyl)-3,7-dihydro-1H-purine-2,6-dione]
[6]
  listed under heading Active MLKL Inhibitors: Active

## CC(C)(C)C(=O)N1N=CC[C@H]1c1ccccc1 [GSK963, (S)-2,2-dimethyl-1-(5-phenyl-4,5-dihydro-1H-pyrazol-1-yl)propan-1-on]
[6]
  listed under heading Active RIP1 Inhibitors: Active

## CN1C(=O)C(Cc2c[nH]c3ccccc23)NC1=S (stereo not shown) [Nec-1, 5-((1H-indol-3-yl)methyl)-3-methyl-2-thioxoimidazolidin-4-one]
[6]
  listed under heading Active RIP1 Inhibitors: Active

## CNC(=O)c1ccc2c(c1)ncn2-c1ccc(CC(=O)OC(C)(C)C)cc1 [GSK'840, tert-butyl 2-(4-(5-(methylcarbamoyl)-1H-benzo[d]imidazol-1-yl)phenyl)acetate]
[6]
  listed under heading Active RIP3 Inhibitors: Active

## O=C(N[C@H]1COc2cc(Cl)ccc2NC1=O)c1nnc(Cc2ccccc2)[nH]1 [(S)-5-benzyl-N-(8-chloro-4-oxo-2,3,4,5-tetrahydrobenzo[b][1,4]oxazepin-3-yl)-4H-1,2,4-triazole-3-carboxamide]
[6]
  listed under heading Active RIP1 Inhibitors: Active

## Cn1c(=O)c2c(nc(S(C)(=O)=O)n2C)n(C)c1=O [TC13-4, 1,3,7-trimethyl-8-(methylsulfonyl)-1H-purine-2,6(3H,7H)-dione]
[6]
  listed under heading Active MLKL Inhibitors: Active

## CCC(C)(C)C(=O)N(O)Cc1ccc(F)c(F)c1 [N-(3,4-Difluorobenzyl)-N-hydroxy-2,2-dimethylbutanamide]
[6]
  listed under heading Active RIP1 Inhibitors: Active
